Experimental findings from patent publication US20090082329A1 (AVENTIS PHARMA S.A., priority 2006, published 2009) are described below.

Assay [1] deals with T1, human cytoplasmic domain of IGF-1R (Homo sapiens, UniProt P08069).
T1 construct: The human cytoplasmic domain of IGF-1R was cloned by fusion with glutathione S-transferase (GST); made in house; host or cells: SF21 insect cells (baculovirus, pFastBac-GST)
The assay is described as follows: Kinase IGF-1R test: inhibition of autophosphorylation of the enzyme (HTRF). It counts as biochemical. Conditions: ATP 120 μM. A digest of the protocol:
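GST-fused human IGF-1R cytoplasmic domain from Sf21 cells (5 nM) preincubated with 1/3-step compound dilutions for 30 or 90 min in pH 7.5 Hepes/MnCl2 buffer, ≤1% DMSO. Autophosphorylation started with 120 μM ATP, stopped after 5 min; HTRF (anti-GST XL665/Eu-anti-phosphotyrosine) read, IC50 from inhibition vs log concentration.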

The subject of a further assay is MEF-IGF1R cells. Put plainly: Proliferation/viability of MEF-IGF1R (Thymidine [14C] incorporation). It counts as cell-based. The settings on record: rhIGF1 100 ng/mL, incubation 72 hours, read-out: Test C IC50. A digest of the protocol: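 Serum-starved (24 h) MEF cells stably expressing human IGF-1R were exposed to compound with rhIGF1 (100 ng/mL) and [14C]thymidine for 72 h at 37 °C. Incorporation counted by scintillation; IC50 from 10 concentrations in duplicate, normalised to IGF1-stimulated (100%) and unstimulated (0%) controls, non-linear regression.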

Assay [2] addresses T2, IGF-1R in MCF7 cells (Homo sapiens, UniProt P08069). The assay is described as follows: Autophosphorylation of IGF-1R in MCF7 cells after stimulation with IGF-1 (ELISA). It counts as cell-based. Conditions: MCF-7 cells, compound added one hour before stimulation with IGF1; read-out: Test B IC50. On the set-up: The autophosphorylation of IGF1R in the IGF1-induced cells is evaluated by means of an ELISA technique; endogenous in cells; host or cells: MCF-7 cells. The procedure:
B) Measurement of the Autophosphorylation of IGF-1R in MCF7 Cells after Stimulation with IGF-1
Cell Culturing and Execution of the Test:
The autophosphorylation of IGF1R in the IGF1-induced cells is evaluated by means of an ELISA technique (Enzyme Linked ImmunoSorbent Assay). The MCF-7 are seeded at 60 000 cells per well in 6-well plates and incubated at 37° C., 5% CO2 in medium containing 10% serum. After one night in 10% serum, the cells are deprived of serum for 24 hours. The compounds are added to the medium one hour before stimulation with IGF1. After 10 minutes of stimulation with IGF1, the cells are lysed with a buffer (Hepes 50 mM pH 7.6, Triton X100 1%, orthovanadate 2 mM, protease inhibitor cocktail). The cell lysates are incubated on a 96-well plate precoated with an anti-IGF1R antibody, followed by incubation with an anti-phosphotyrosine antibody coupled to the enzyme peroxidase. The level of peroxidase activity (measured by OD with a luminescent substrate) reflects the phosphorylation status of the receptor.
(i) The tests are performed in duplicate and the mean of the two tests is calculated.
(ii) The value of the signal of the maximum response is calculated from the positive control: cells stimulated with IGF1 without compound.
(iii) Value of the signal of the minimum response is calculated from the negative control: cells not stimulated with IGF1 without compound. […]

The target of assay [3] is T2, IGF-1R in MCF7 cells. Described as above. The settings on record: MCF-7 cells, compound added one hour before stimulation with IGF1; read-out: Test B IC50. On the set-up: endogenous in cells; host or cells: MCF-7 cells. The class given is cell-based. An outline of the steps:
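MCF-7 cells serum-starved 24 h, given compound 1 h before 10 min IGF-1 stimulation, then lysed. Phospho-IGF-1R captured by anti-IGF-1R and detected with peroxidase anti-phosphotyrosine, luminescent read-out; duplicates normalized to stimulated (100%) and unstimulated (0%) controls, IC50 by non-linear regression.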

Setting [4] is: preincubation 30 minutes with 5 nM enzyme, read-out: Test A 30′ IC50.
Where [5] appears, read: preincubation 90 minutes with 5 nM enzyme, read-out: Test A 90′ IC50.

Read-outs that look alike come from different tables or passages of the source. A value given as a limit tells only on which side of the number the result lay.

T1 sequence (P08069 960-1367 limits assumed): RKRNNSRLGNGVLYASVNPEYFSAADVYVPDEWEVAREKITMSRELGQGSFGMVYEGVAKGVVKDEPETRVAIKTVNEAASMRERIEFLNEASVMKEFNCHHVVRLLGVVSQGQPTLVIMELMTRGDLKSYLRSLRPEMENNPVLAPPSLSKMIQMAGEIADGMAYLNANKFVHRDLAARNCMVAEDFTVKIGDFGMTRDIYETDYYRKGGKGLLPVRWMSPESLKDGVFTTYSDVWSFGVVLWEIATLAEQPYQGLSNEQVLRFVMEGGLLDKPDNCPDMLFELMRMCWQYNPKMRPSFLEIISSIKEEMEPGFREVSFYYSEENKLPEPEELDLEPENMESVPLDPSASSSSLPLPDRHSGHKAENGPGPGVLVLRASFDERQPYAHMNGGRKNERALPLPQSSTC
T2 sequence (P08069 31-1367): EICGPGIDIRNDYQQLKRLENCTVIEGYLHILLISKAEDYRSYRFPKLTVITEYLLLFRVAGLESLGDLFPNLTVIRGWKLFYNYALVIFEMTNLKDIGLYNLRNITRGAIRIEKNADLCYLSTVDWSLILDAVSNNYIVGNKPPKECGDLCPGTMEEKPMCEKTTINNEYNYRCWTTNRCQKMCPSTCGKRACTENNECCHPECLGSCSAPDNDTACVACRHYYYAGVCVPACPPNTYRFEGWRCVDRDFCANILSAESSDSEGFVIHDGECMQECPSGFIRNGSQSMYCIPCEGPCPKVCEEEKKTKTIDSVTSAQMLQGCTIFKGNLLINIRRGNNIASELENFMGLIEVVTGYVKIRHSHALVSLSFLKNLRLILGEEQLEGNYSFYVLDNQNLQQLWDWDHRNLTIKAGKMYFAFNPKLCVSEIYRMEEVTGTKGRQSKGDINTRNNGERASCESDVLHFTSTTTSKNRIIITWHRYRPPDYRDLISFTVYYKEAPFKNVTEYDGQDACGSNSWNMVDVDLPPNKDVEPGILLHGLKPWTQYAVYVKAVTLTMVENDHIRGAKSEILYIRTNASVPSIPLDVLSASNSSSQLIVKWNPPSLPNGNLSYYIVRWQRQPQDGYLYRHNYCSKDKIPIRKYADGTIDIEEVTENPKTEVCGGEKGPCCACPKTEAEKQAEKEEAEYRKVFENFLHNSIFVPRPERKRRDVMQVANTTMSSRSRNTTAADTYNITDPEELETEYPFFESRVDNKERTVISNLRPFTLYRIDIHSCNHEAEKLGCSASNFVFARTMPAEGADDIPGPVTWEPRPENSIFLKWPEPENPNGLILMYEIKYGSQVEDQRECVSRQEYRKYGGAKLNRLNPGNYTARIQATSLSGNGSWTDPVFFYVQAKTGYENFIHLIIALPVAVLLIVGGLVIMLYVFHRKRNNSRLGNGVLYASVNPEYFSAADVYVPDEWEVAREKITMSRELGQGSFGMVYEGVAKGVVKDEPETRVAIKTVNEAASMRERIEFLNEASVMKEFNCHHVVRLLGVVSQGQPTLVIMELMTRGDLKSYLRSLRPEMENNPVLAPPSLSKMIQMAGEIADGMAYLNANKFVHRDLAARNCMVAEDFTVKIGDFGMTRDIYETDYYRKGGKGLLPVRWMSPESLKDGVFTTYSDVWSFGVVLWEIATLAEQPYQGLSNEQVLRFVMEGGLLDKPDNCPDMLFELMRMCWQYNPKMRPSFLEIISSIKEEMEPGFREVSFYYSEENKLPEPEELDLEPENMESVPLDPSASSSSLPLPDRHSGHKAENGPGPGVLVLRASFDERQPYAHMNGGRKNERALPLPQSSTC

Consider `CC1(C)C(=O)N(c2ccc(SC(F)(F)F)cc2)C(=O)N1Cc1ccnc(NC(N)=O)c1` [Example 40A], for which the IC50 (in general, the concentration that inhibits the measured activity by half) in assay [1] (setting [4]) is 10 to 100 nM; in assay [1] (setting [5]) it was < 10 nM; in the assay with MEF-IGF1R cells, 10 to 100 nM; on IGF-1R in MCF7 cells [2], < 10 nM.
Take `CC1(C)C(=O)N(c2ccc(SC(F)(F)F)cc2)C(=O)N1Cc1ccnc(Nc2ccc(Cl)nc2)c1` [Example 40F, 1-({2-[(6-chloropyridin-3-yl)amino]pyridin-4-yl}-methyl)-5,5-dimethyl-3-{4-[(trifluoromethyl)thio]phenyl}imidazolidine-2,4-dione]: the IC50 in assay [1] (setting [4]) is > 100 nM; in assay [1] (setting [5]), 10 to 100 nM; in the assay with MEF-IGF1R cells, > 100 nM; at IGF-1R in MCF7 cells [3], > 100 nM.
Consider `CC1(C)C(=O)N(c2ccc(SC(F)(F)F)cc2)C(=O)N1Cc1ccnc(Nc2ccc(O)nc2)c1` [Example 40G, 1-({2-[(6-hydroxypyridin-3-yl)amino]pyridin-4-yl}-methyl)-5,5-dimethyl-3-{4-[(trifluoromethyl)thio]phenyl}imidazolidine-2,4-dione], for which the IC50 is 10 to 100 nM in assay [1] (setting [4]), 10 to 100 nM in assay [1] (setting [5]), > 100 nM in the assay with MEF-IGF1R cells and 10 to 100 nM on IGF-1R in MCF7 cells [3].
On to `COC(=O)Nc1cc(CN2C(=O)N(c3ccc(SC(F)(F)F)cc3)C(=O)C2(C)C)ccn1` [Example 40L, methyl {4-[(5,5-dimethyl-2,4-dioxo-3-{4-[(tri-fluoromethyl)thio]phenyl}imidazolidin-1-yl)methyl]pyridin-2-yl}carbamate], for which the IC50 was 10 to 100 nM in assay [1] (setting [4]), < 10 nM in assay [1] (setting [5]), > 100 nM with MEF-IGF1R cells and 10 to 100 nM at IGF-1R in MCF7 cells [3].
